Data: patent US8288410B2, “3-substituted quinolinium and 7H-indolo[2,3-c]quinolinium salts as new antiinfectives” (Florida Agricultural and Mechanical University, priority 2008, dated 2012)

Experiments:
[1] = tested on: Candida albicans ATTC 90028; experiment: Antifungal susceptibility testing, Candida albicans; assay type: cell-based
Description: (§1) Using standard susceptibility tests, the compounds of the invention were determined to be active against MRSA, C. neoformans and several other bacteria, fungi and protozoa. More specifically, the antibacterial and antifungal testing was carried out in the following manner. Cryptococcus neoformans ATCC 90113 and MRSA were obtained from the American Type Culture Collection (Manassas. Va.). Several others including Candida albicans ATTC 90028, Aspergillus fumigatus ATCC 90906 and Mycobacterium intracellulare (M. intracellulare) ATCC 23086 were also procured. Susceptibility testing was performed using a modified version of the National Committee for Clinical Laboratory Standards method. M. intracellulare was tested using a modified method of Franzblau, et al., J. Clin. Microbiol., 1998, 36, 362-366. DMSO solutions of samples were serially diluted in saline, and transferred in duplicate to 96 well microplates. Microbial suspensions were diluted in the broth to afford desired colony forming units/mL according to the 0.5 McFarland Standard [C. Albicans: either Saboraud Dextrose broth (SDB) or RPMI 1640, C. neoformans: SDB, A fumigatus: either YM broth (for MICS) or RPMI-1640+5% Alamar Blue.] After adding microbial cultures to the sampled afforded a final volume of 200 μL and final test concentration starting with 20 μg/mL, plates were read prior to and after final incubation using either fluorescence at 544ex/590em (M intracellulare, A. fumigatus) using the Polarstar galaxy reader (Biotek Instruments, Vermont). Growth (saline only), solvent and blank (media only) controls were included on each test plate. Drug controls [Ciprofloxacin (ICN Biomedicals, Ohio) for bacteria and Amphotericin B (ICN Biomedicals, Ohio) for fungi] were included in each assay. Percent growth was calculated and plotted versus test concentration to afford IC50 (sample concentration that affords 50% inhibition or growth of the organism). The minimum inhibitory concentration (MIC) was determined by visually inspecting the plate, and is defined as the lowest test concentration that allows no detectable growth (for Almar Blue assays, no color change from blue to pink).

[2] = tested on: Cryptococcus neoformans ATCC 90113; experiment: Antifungal susceptibility testing, Cryptococcus neoformans; assay type: cell-based
Description: as §1

MRSA = experiment: Antibacterial susceptibility testing, MRSA; assay type: cell-based, methicillin resistant Staphylococcus aureus; settings: for MRS IC50 / MRS MFC / MRS MIC: Table 1
Description: as §1

[3] = tested on: Aspergillus fumigatus ATCC 90906; experiment: Antifungal susceptibility testing, Aspergillus fumigatus; assay type: cell-based; settings: Aspergillus fumigatus
Description: as §1

## [I-].[O-][S+](c1cc2ccccc2[n+](CCCCCc2ccccc2)c1)c1ccccc1Br (centres unmarked) [XYZ-IV-98]
[1]; Table 1
  Ca IC50: — ((-) = >20 μg/mL)
  Ca MFC: — ((-) = >20 μg/mL)
  Ca MIC: — ((-) = >20 μg/mL)
[2]; Table 1
  Cn IC50: 5.5 µg/mL
  Cn MFC: — ((-) = >20 μg/mL)
  Cn MIC: 20 µg/mL
MRSA
  MRS IC50: 0.35 µg/mL
  MRS MFC: — ((-) = >20 μg/mL)
  MRS MIC: 1.3 µg/mL
[3]; Table 1
  A fu IC50: 15 µg/mL
  A fu MFC: — ((-) = >20 μg/mL)
  A fu MIC: — ((-) = >20 μg/mL)

## COc1cccc(Sc2cc3ccccc3[n+](CCCCCc3ccccc3)c2)c1.[I-] [XYZ-IV-20]
[1]; Table 1
  Ca IC50: 7.0 µg/mL
  Ca MFC: — ((-) = >20 μg/mL)
  Ca MIC: 20 µg/mL
[2]; Table 1
  Cn IC50: 1.5 µg/mL
  Cn MFC: 10 µg/mL
  Cn MIC: 2.5 µg/mL
MRSA
  MRS IC50: 0.70 µg/mL
  MRS MFC: 10 µg/mL
  MRS MIC: 1.3 µg/mL
[3]; Table 1
  A fu IC50: 0.55 µg/mL
  A fu MFC: — ((-) = >20 μg/mL)
  A fu MIC: 1.3 µg/mL

## [I-].[O-][S+](c1ccc(F)cc1)c1cc2ccccc2[n+](CCCCCc2ccccc2)c1 (centres unmarked) [XYZ-IV-84]
[1]; Table 1
  Ca IC50: — ((-) = >20 μg/mL)
  Ca MFC: — ((-) = >20 μg/mL)
  Ca MIC: — ((-) = >20 μg/mL)
[2]; Table 1
  Cn MFC: — ((-) = >20 μg/mL)
  Cn MIC: — ((-) = >20 μg/mL)
MRSA
  MRS IC50: 0.80 µg/mL
  MRS MFC: 20 µg/mL
  MRS MIC: 5.0 µg/mL
[3]; Table 1
  A fu IC50: — ((-) = >20 μg/mL)
  A fu MFC: — ((-) = >20 μg/mL)
  A fu MIC: — ((-) = >20 μg/mL)

## C[n+]1cc(Nc2ccccc2Cl)cc2ccccc21.[I-] [JRE-2-42-1]
[1]; Table 2
  Ca IC50: — ((-) = >20 μg/mL)
  Ca MFC: — ((-) = >20 μg/mL)
  Ca MIC: — ((-) = >20 μg/mL)
[2]; Table 2
  Cn IC50: — ((-) = >20 μg/mL)
  Cn MFC: — ((-) = >20 μg/mL)
  Cn MIC: — ((-) = >20 μg/mL)
MRSA; Table 2
  MRSA IC50: — ((-) = >20 μg/mL)
  MRSA MFC: — ((-) = >20 μg/mL)
  MRSA MIC: — ((-) = >20 μg/mL)
[3]; Table 2
  A fu IC50: — ((-) = >20 μg/mL)

## COc1cccc([S+]([O-])c2cc3ccccc3[n+](CCCCCc3ccccc3)c2)c1.[I-] (centres unmarked) [XYZ-V-23]
[1]; Table 1
  Ca IC50: — ((-) = >20 μg/mL)
  Ca MFC: — ((-) = >20 μg/mL)
  Ca MIC: — ((-) = >20 μg/mL)
[2]; Table 1
  Cn MFC: — ((-) = >20 μg/mL)
  Cn MIC: — ((-) = >20 μg/mL)
MRSA
  MRS IC50: 2.50 µg/mL
  MRS MFC: — ((-) = >20 μg/mL)
  MRS MIC: 10 µg/mL
[3]; Table 1
  A fu IC50: — ((-) = >20 μg/mL)
  A fu MFC: — ((-) = >20 μg/mL)
  A fu MIC: — ((-) = >20 μg/mL)

## C[n+]1cc(Sc2ccccc2)cc2ccccc21.[I-] [XYZ-III-53]
[1]; Table 1
  Ca IC50: — ((-) = >20 μg/mL)
  Ca MFC: — ((-) = >20 μg/mL)
  Ca MIC: — ((-) = >20 μg/mL)
[2]; Table 1
  Cn IC50: — ((-) = >20 μg/mL)
  Cn MFC: — ((-) = >20 μg/mL)
  Cn MIC: — ((-) = >20 μg/mL)
MRSA
  MRS IC50: — ((-) = >20 μg/mL)
  MRS MFC: — ((-) = >20 μg/mL)
  MRS MIC: — ((-) = >20 μg/mL)
[3]; Table 1
  A fu IC50: — ((-) = >20 μg/mL)
  A fu MFC: — ((-) = >20 μg/mL)
  A fu MIC: — ((-) = >20 μg/mL)

## Brc1ccc(Sc2cc3ccccc3[n+](CCCCCc3ccccc3)c2)cc1.[I-] [XYZ-III-89]
[1]; Table 1
  Ca IC50: 15 µg/mL
  Ca MFC: — ((-) = >20 μg/mL)
  Ca MIC: — ((-) = >20 μg/mL)
[2]; Table 1
  Cn IC50: 1.0 µg/mL
  Cn MFC: 10 µg/mL
  Cn MIC: 2.5 µg/mL
MRSA
  MRS IC50: 1.5 µg/mL
  MRS MFC: 10 µg/mL
  MRS MIC: 2.5 µg/mL
[3]; Table 1
  A fu IC50: 1.5 µg/mL
  A fu MFC: — ((-) = >20 μg/mL)
  A fu MIC: 2.5 µg/mL

## C[n+]1cc(Sc2ccc(F)cc2)cc2ccccc21.[I-] [XYZ-III-62]
[1]; Table 1
  Ca IC50: — ((-) = >20 μg/mL)
  Ca MFC: — ((-) = >20 μg/mL)
  Ca MIC: — ((-) = >20 μg/mL)
[2]; Table 1
  Cn IC50: — ((-) = >20 μg/mL)
  Cn MFC: — ((-) = >20 μg/mL)
  Cn MIC: — ((-) = >20 μg/mL)
MRSA
  MRS IC50: — ((-) = >20 μg/mL)
  MRS MFC: — ((-) = >20 μg/mL)
  MRS MIC: — ((-) = >20 μg/mL)
[3]; Table 1
  A fu IC50: — ((-) = >20 μg/mL)
  A fu MFC: — ((-) = >20 μg/mL)
  A fu MIC: — ((-) = >20 μg/mL)

## [I-].[O-][S+](c1cc2ccccc2[n+](CCCCCc2ccccc2)c1)c1ccccc1F (centres unmarked) [XYZ-IV-100]
[1]; Table 1
  Ca IC50: — ((-) = >20 μg/mL)
  Ca MFC: — ((-) = >20 μg/mL)
  Ca MIC: — ((-) = >20 μg/mL)
[2]; Table 1
  Cn MFC: — ((-) = >20 μg/mL)
  Cn MIC: — ((-) = >20 μg/mL)
MRSA
  MRS IC50: 1.5 µg/mL
  MRS MFC: — ((-) = >20 μg/mL)
  MRS MIC: 5.0 µg/mL
[3]; Table 1
  A fu IC50: — ((-) = >20 μg/mL)
  A fu MFC: — ((-) = >20 μg/mL)
  A fu MIC: — ((-) = >20 μg/mL)

## Brc1ccccc1Sc1cc2ccccc2[n+](CCCCCc2ccccc2)c1.[I-] [XYZ-III-85]
[1]; Table 1
  Ca IC50: 20 µg/mL
  Ca MFC: — ((-) = >20 μg/mL)
  Ca MIC: — ((-) = >20 μg/mL)
[2]; Table 1
  Cn IC50: 1.5 µg/mL
  Cn MFC: 10 µg/mL
  Cn MIC: 5.0 µg/mL
MRSA
  MRS IC50: 0.95 µg/mL
  MRS MFC: 10 µg/mL
  MRS MIC: 2.5 µg/mL
[3]; Table 1
  A fu IC50: 0.50 µg/mL
  A fu MFC: — ((-) = >20 μg/mL)
  A fu MIC: 5.0 µg/mL

## [I-].c1ccc(CCCCC[n+]2cc(Sc3ccccc3)cc3ccccc32)cc1 [XYZ-III-54]
[1]; Table 1
  Ca IC50: 5.5 µg/mL
  Ca MFC: — ((-) = >20 μg/mL)
  Ca MIC: 10 µg/mL
[2]; Table 1
  Cn MFC: 10 µg/mL
  Cn MIC: 5.0 µg/mL
MRSA
  MRS IC50: 1.0 µg/mL
  MRS MFC: 10 µg/mL
  MRS MIC: 2.5 µg/mL
[3]; Table 1
  A fu IC50: 1.3 µg/mL
  A fu MFC: — ((-) = >20 μg/mL)

## [I-].c1ccc(CCCCC[n+]2cc(Oc3ccccc3)cc3ccccc32)cc1 [XYZ-III-83]
[1]; Table 1
  Ca IC50: — ((-) = >20 μg/mL)
  Ca MFC: — ((-) = >20 μg/mL)
  Ca MIC: — ((-) = >20 μg/mL)
[2]; Table 1
  Cn IC50: — ((-) = >20 μg/mL)
  Cn MFC: — ((-) = >20 μg/mL)
  Cn MIC: — ((-) = >20 μg/mL)
MRSA
  MRS IC50: 15 µg/mL
  MRS MFC: — ((-) = >20 μg/mL)
  MRS MIC: 20 µg/mL
[3]; Table 1
  A fu IC50: 2.0 µg/mL
  A fu MFC: — ((-) = >20 μg/mL)
  A fu MIC: — ((-) = >20 μg/mL)

## COc1ccc(Sc2cc3ccccc3[n+](CCCCCc3ccccc3)c2)cc1.[I-] [XYZ-III-72]
[1]; Table 1
  Ca IC50: — ((-) = >20 μg/mL)
  Ca MFC: — ((-) = >20 μg/mL)
  Ca MIC: — ((-) = >20 μg/mL)
[2]; Table 1
  Cn IC50: 9.5 µg/mL
  Cn MFC: — ((-) = >20 μg/mL)
  Cn MIC: 20 µg/mL
MRSA
  MRS IC50: 2.0 µg/mL
  MRS MFC: 10 µg/mL
  MRS MIC: 5.0 µg/mL
[3]; Table 1
  A fu IC50: 3.5 µg/mL
  A fu MFC: — ((-) = >20 μg/mL)
  A fu MIC: 10 µg/mL
